From patent US9907791B2, “Ron inhibitors for use in preventing and treating bone loss” (UNIVERSITY OF UTAH RESEARCH FOUNDATION, priority 2014, dated 2018)

How the values were obtained:
[1] = Human plasma CTX levels, Phase I patients; type: in vivo
From the text: All samples were de-identified and the experiments were approved by the University of Utah Institutional Review Board. Plasma samples were submitted to ARUP for clinical testing of CTX. For BSAP, the Human Bone Panel I capture plate with the Human Alkaline Phosphatase detection kit was utilized (Meso Scale Discovery, Rockville, Md.; […]-2) to measure BSAP levels in undiluted plasma samples per the manufacturer's protocol. ASLAN002 is currently in Phase I testing as an anti-cancer agent (NCT01721148). Regardless of cancer diagnosis, and even in the absence of bone metastasis, RON inhibition might affect normal bone turnover, especially in postmenopausal women due to their high rate of bone loss. Plasma samples from early cohorts of Phase I patients were examined for evidence of bone turnover at baseline and after treatment with ASLAN002, using a standard clinical test to detect cleaved bone-derived collagen in plasma (beta-cross-linked C-telopeptide, or CTX). […] Shown in FIG. 15A is quantification of the percent change in plasma CTX levels (compared to baseline prior to drug treatment) in blood plasma of patients receiving ASLAN002 in the Phase I clinical trial. Most patients received ASLAN002 for 28 days; the exceptions in duration are noted (*15 days and ^84 days). Dark bars represent males, and light bars represent females. […] In this analysis, all subjects except one were >50 years old; women older than 50 were expected to have the greatest amount of physiologic bone turnover due to menopause. None of the patients analyzed were treated concurrently with anti-osteoporotic agents. […] Shown in FIG. 15B is quantification of the percent change in BSAP levels (compared to baseline) in blood plasma of patients receiving ASLAN002. The patients are the same as those shown in FIG. 15A, except those receiving only 15 days of ASLAN002 were not tested for BSAP. Dark bars represent males, and light bars represent females. Note that these patients were not selected based on a diagnosis of bone metastasis; rather, markers of bone turnover in patients with various cancer diagnoses who participated in the Phase I trial of ASLAN002 were simply assessed.

bone marrow osteoclasts = assay: Osteoclast resorption assay; type: cell-based, mice; conditions: WT osteoclasts, inhibitors 10 μM or muRANK-Fc 10 μg/mL daily day 9 to 12
Procedure: Bone marrow osteoclasts were generated from 6 to 8 week old WT and RonTK−/− mice. Briefly, bone marrow was isolated from hindlimb bones and plated in α-MEM media containing 10% heat-inactivated fetal bovine serum (FBS, Sigma, St. Louis, Mo.), 100 units/mL penicillin-streptomycin (Hyclone), and 33 ng/mL human macrophage colony-stimulating factor (hM-CSF) (PeproTech, Rocky Hill, N.J.) for 24 hours. Non-adherent cells were collected and frozen for later use. To assess resorption activity, bone marrow precursor cells were thawed and seeded at a density of 1×10^5 cells per well in BioCoat Osteologic slides (BD Biosciences, San Jose, Calif.) in α-MEM media containing 10% FBS and antibiotics. After adhering overnight, media was removed and media containing 33 ng/mL hM-CSF and 9 ng/mL muRANKL (R & D systems, Minneapolis, Minn.) was added. The medium was changed every 3 days depending on acidification, and the assay was terminated as indicated. Recombinant human MSP was prepared and added daily as indicated. Cells were removed with 6% bleach and slides were viewed microscopically using phase-contrast with 20× magnification. Osteolytic resorption area within 5 representative fields was determined using Image J software, experiments were performed in triplicate. […]

c-Src = assay: Western blot of osteoclast lysates, phospho-Src; type: cell-based, mice; conditions: WT osteoclasts with MSP
Procedure: Cells were serum starved (0.5% FBS) for 3 hours prior to lysate collection. Inhibitors were added 1 hour prior to lysis and MSP was added 15 min prior to lysis when indicated. Cells were washed with 1×PBS and harvested in lysis buffer (25 mM Tris-HCl, pH 7.5, 0.42 M NaCl, 1.5 mM MgCl2, 0.5 mM EDTA, 1 mM DTT, 25% sucrose, and 0.1% Triton X-100) plus 100× protease arrest (Bioscience, Bozeman, Mont.) and 100× orthovanadate. Primary antibodies used for immunoblotting include: anti-MSP (Santa Cruz, sc-6090, Dallas, Tex.) at a 1:250 dilution, anti-pan Akt (Cell Signaling, #4691S, Beverly, Mass.) at a 1:1000 dilution, anti-pan Erk (Cell Signaling, #4695, Beverly, Mass.) at a 1:1000 dilution, anti-phospho Akt (Cell Signaling, #9271 L, Beverly, Mass.) at a 1:500 dilution, anti-phospho Erk (Cell Signaling, #4370S, Beverly, Mass.) at a 1:500 dilution, anti-Src (Cell Signaling, #2110, Beverly, Mass.) at a 1:500 dilution, and anti-phospho Src (Y416) (Cell Signaling, #2113, Beverly, Mass.) at a 1:500 dilution. The secondary antibodies used were HRP-conjugated anti-goat IgG (Santa Cruz, Dallas, Tex.) and anti-rabbit IgG (Santa Cruz, Dallas, Tex.). Chemiluminescent signals were detected using Immun-Star HRP (BioRad, Hercules, Calif.).

CCOc1ccn(-c2ccc(F)cc2)c(=O)c1C(=O)Nc1ccc(Oc2ccnc(N)c2Cl)c(F)c1 [ASLAN002]
women showing ≧25% decreases in CTX ([1]; 7/10 women): 70%
patients exhibiting decreased CTX levels ([1]; 11/18 Phase I patients, most 28 days of treatment): 61%
men showing ≧25% decreases in CTX ([1]; number of men out of all men): 0/8
patients with decreased CTX that had ≧25% reduction ([1]; of the patients with decreased CTX, Mayo clinic response guideline): 64%
MSP-induced increase in osteoclast resorption (resorption area) (bone marrow osteoclasts): dramatically reduced
MSP-increased Src phosphorylation (c-Src): blocked
